According to publication PMC8456950, “Structure‐Guided Design of G‐Protein‐Coupled Receptor Polypharmacology” (Angewandte Chemie (International Ed. in English), 2021):

Legend:
Human D2R [1] = target: T1, Human D2R (Homo sapiens, UniProt P14416); assay: D2R competition binding ([3H]-spiperone displacement); conditions: radioligand displacement, mean±SEM of three experiments in duplicate; read-out: D2R binding affinity Ki
T1 construct: expressed in transfected cells; host or cells: CHO-D2R #S20 cell line (membranes)
T1 sequence (P14416 whole entry): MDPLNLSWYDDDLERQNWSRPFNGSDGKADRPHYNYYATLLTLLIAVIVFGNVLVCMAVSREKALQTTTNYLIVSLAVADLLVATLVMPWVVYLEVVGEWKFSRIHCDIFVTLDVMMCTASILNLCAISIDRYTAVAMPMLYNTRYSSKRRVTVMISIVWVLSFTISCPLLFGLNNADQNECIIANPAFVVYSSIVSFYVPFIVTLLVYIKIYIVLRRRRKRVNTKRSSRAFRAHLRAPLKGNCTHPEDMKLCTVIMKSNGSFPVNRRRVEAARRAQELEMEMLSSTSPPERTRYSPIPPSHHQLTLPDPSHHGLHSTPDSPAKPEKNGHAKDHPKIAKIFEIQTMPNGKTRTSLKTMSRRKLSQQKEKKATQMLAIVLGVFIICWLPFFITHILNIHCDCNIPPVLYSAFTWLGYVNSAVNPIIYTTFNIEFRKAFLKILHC
Experimental: Human D2R competition binding experiments w ere carried out in polypropylene 96-well plates. Each well contained 10 µg of membranes from a CHO-D2R #S20 cell line (protein concentration of 3241 µg/ml), 0.4 nM [3H]-spiperone (80. 2 Ci/mmol, 1 mCi/ml, Perkin […]
The reaction mixture (250 µl/well) was incubated at 25°C for 120 min , after which 200 µL was transferred to a GF/C 96 -well plate (Millipore, Madrid, Spain) pretreated with 0. 5% of PEI and treated with binding buffer (50 mM Tris-HCl, 1 mM EDTA, 5 mM MgCl2, 5 mM KCl, 120 mM NaCl, pH=7.4). The […]
samples were filtered and washed four times with 250 µl wash buffer (50 mM Tris-HCl, 0.9% NaCl, pH=7.4) before measuring in a microplate beta scintillation counter (Microbeta Trilux, PerkinElmer, Madrid, Spain). Three independent exp eriments were carried out to calculate Ki values (n=3). […]

D3R = target: T2, D3R (Homo sapiens, UniProt P35462); assay: D3R competition binding ([3H]-spiperone); conditions: mean±SEM of two experiments in duplicate; read-out: D3R binding affinity Ki
T2 construct: purchased Perkin Elmer ES-173M400UA
T2 sequence (P35462 whole entry): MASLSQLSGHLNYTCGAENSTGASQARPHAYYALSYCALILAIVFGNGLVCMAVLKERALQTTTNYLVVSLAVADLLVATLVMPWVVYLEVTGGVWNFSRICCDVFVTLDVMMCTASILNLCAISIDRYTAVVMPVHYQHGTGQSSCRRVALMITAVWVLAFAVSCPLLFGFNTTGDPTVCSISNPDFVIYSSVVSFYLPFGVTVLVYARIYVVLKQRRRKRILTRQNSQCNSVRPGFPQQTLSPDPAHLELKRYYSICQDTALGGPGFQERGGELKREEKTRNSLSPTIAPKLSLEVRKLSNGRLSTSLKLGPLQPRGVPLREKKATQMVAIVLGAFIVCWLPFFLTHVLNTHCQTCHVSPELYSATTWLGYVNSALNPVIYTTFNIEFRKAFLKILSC
Experimental: samples were filtered and washed four times with 250 µl wash buffer (50 mM Tris-HCl, 0.9% NaCl, pH=7.4) before measuring in a microplate beta scintillation counter (Microbeta Trilux, PerkinElmer, Madrid, Spain). Three independent exp eriments were carried out to calculate Ki values (n=3).
Human A1AR competition binding experiments were carried out in multiscreen GF/C 96 -well plates (Millipore, Madrid, Spain) pretreated with assay buffer ( 20 mM Hepes, 100 mM NaCl, 10 mM MgCl2, 2 U/ml adeno sine deamina se, pH=7.4). Each well contained 5 µg of membranes from a CHO-A1AR cell line, 1 nM [3H]-DPCPX (137 Ci/mmol, 1 mCi/Ml, Perkin Elmer NET974001MC), and the compound studied. Non-specific binding was determined in the presence of R-PIA 10 µM (Sigma P4532). The reaction mixture (200 µl/well) was incubated at 25°C for 60 min. The samples were then filtered and washed four times with 250 µl wash buffer (20 mM Hepes, 100 mM NaCl, 10 mM MgCl2, pH=7.4) before measuring in a microplate beta scintillati on counter (Microbeta Trilux, PerkinElmer, Madrid, Spain). Two independent experiments were carried out to calculate K i values (n=2).
D3R competition binding experiments were carried out in polypropylene 96 -well plate s. Each well contained 2 µg of membranes from a D3R cell line (Perkin Elmer, ES-173M400UA, protein concentration=1000 µg/ml), 1 nM [3H]-spiperone (68 Ci/mmol, 1 mCi/ml, Perkin Elmer NET1187001MC), and the compound studied. Non-specific binding was determined in the presence of 1 µ M haloperidol (Sigma H1512). The reaction mixture (250 µl/well) was incubated at 25 °C for 60 min, after which 200 µL was transferred to GF/C 96-well plates (Millipore, Madrid, Spain) pretreated with 0. […]
D4R competition binding experiments were carried out in polypropylene 96 -well plate s. […] Non-specific binding was determined in the presence of 25 µM haloperidol (Sigma H1512). […]
H1R competition binding experiments were carried out in polypropylene 96-well plates. […] Non-specific binding was determined in the presence of 10 µM triprolidine (T6764, Sigma Aldrich). […]

Human D2R [2] = target: T1, Human D2R; assay: D2R functional cAMP (HTRF) assay in CHO-D2 #S20 cells; assay type: cell-based; conditions: for EC50: cAMP HTRF, CHO-D2 cells, forskolin 10 µM, mean±SEM n=3; for Emax: relative to the maximal effect of dopamine
Experimental: KB=I C50/(1+([NECA]/EC50 NECA)).
Functional assays for the human D2R were carried out in a CHO-D2 #S20 cell line. 5,000 cells were seed ed in 30 µl of Opti-ME M (Invitrogen 11058) and 500µM IBMX (Sigma 17018) on a 96-well isoplate (PerkinElmer 6005030). The studied compounds wer e then added and incubated for 10 min at 37 °C with gentle stirring (150 rpm). Then, 10 µM […]
forskolin (Sigma 17018) was added and incubated for 5 min at 37 °C with gentle stirring (150 rpm). Reagents (#CISBIO 62AM4PEC) were added and, after incubation for 60 min at rt with gentle stirring (90 rpm) and protected from light, homogeneous time resolved fluorescence (HTRF, λEx: 320 nm; λEm: 620-665 nm) from each well was measured using a Tecan Infinite M1000 Pro. Data were normalized to the maximum effect of dopamine. EC50 and Ema x values were obtained after fitting the d ata to a four -parameter logistic equatio n using Prism V2. 1 (Graph Pad Inc, Chicago, USA) . […]

Row | SMILES | Ki (Human D2R [1]) [nM] | Ki (D3R) [nM] | EC50 (Human D2R [2]) [nM] | Emax (Human D2R [2]) [%]
1 | CCN(CCCCC(=O)Nc1nc2c(Br)cccc2s1)C1Cc2ccccc2C1 [Compound 22] | 340 ± 40 | 21 ± 6 | 2500 ± 900 | 119 ± 6
2 | CCCN(CCCCC(=O)Nc1nc2c(OC)cccc2s1)C1Cc2ccccc2C1 [Compound 26] | 230 ± 20 | 21 ± 2 | 990 ± 380 | 94 ± 3
3 | CCCN(CCCCC(=O)Nc1nc2c(Br)cccc2s1)C1Cc2ccccc2C1 [Compound 27] | 530 ± 180 | – | 180 ± 30 | 89 ± 4
4 | CCCN(CCCCC(=O)Nc1nc2c(OC)ccc(OC)c2s1)C1Cc2ccccc2C1 [Compound 30] | 370 ± 30 | 56 ± 7 | 180 ± 40 | 77 ± 5
